In patent publication US10835533B2, “1 -((3S,4R)-4-(3-fluorophenyl)-1-(2-methoxyethyl)pyrrolidin-3-yl)-3-(4-methyl-3-(2-methylpyrimidin-5-yl)-1-phenyl-1H-pyrazol-5-yl)urea as a TrkA kinase inhibitor” (Array BioPharma Inc., priority 2014, dated 2020):

Test: IV clearance, 1 mg/kg IV, dog
Type: in vivo
Conditions: for clearance: male, Beagle, plasma, 1 mg/kg IV; for in vivo/in vitro correction factor: microsomal CLh divided by IV CL
Experimental: In Table 1, the predicted human IV clearance values were calculated from compound concentration-versus-time data in plasma collected from pre-clinical species (mouse, rat, dog and monkey) following 1 mg/kg intravenous (IV) doses. Concentrations of compound in plasma were measured by LC-MS (liquid chromatography-mass spectrometry). AUCinf values (Area under the plasma concentration-time curve for a dosing interval from time 0 extrapolated to infinity) for individual Cp/t curves (concentration of the drug in plasma at any time t) were determined using linear-trapezoidal integration and first order extrapolation from terminal points of the Cp/t curves, and clearance (CL) was calculated using Dose/AUCinf.
An IV dose formulation for delivery of a 1 mg/kg in 1 mL/kg dose volume was prepared as follow. The vehicle for the formulation was 20% Trappsol® (hydroxypropyl Beta cyclodextrin; CDT, Inc.) (aq) in water. A final volume of the vehicle was added to each of Compound 1, Compound 2, and Compound 3 (as dry compounds) and the mixture was stirred until a homogeneous solution was obtained. The pH of the final solution was 7. The solution was filtered using a 0.2 μM filter before delivering to the animal.
Male Beagle dogs received a single intravenous dose following an overnight fast. Blood/plasma was collected (1.5 mL/timepoint) in K2EDTA blood collection tubes at the following time points post-dose: 0, 1, 5, 15, and 30 minutes, and 1, 2, 4, 8, 12, 24, and 48 hours, and mixed thoroughly. Blood samples were collected from the jugular, cephalic or saphenous veins from conscious animals. Blood samples were kept on ice until processed for plasma. Blood samples were centrifuged at 3200 RPM for 10 minutes at approximately 5° C. Plasma samples were directly transferred to 96-well plate tubes (MatrixTech, 0.75 mL). Rubber injectable caps were placed on the 96-well plate tubes. Plasma samples were stored at −20±5° C. until analyzed.
A single 12-point calibration curve was prepared by first serially diluting (3-fold) a 40-μg/mL stock solution of Compound 1, Compound 2, and Compound 3 in DMSO to provide standard solutions. Plasma (20 μL) was then added to the extraction plate, and 2.5 μL of each standard solution was added to the naïve plasma. A stock solution of an internal standard (10.0 μL of 2.5 μg/mL in acetonitrile) subsequently was added to each standard and sample solution. Proteinaceous material was precipitated from 20 μL of plasma with the addition of 317.5 μL of acetonitrile for a total volume of 350 μL. Samples were vortex-mixed for 5 minutes and spun in an Allegra X-12R centrifuge (Beckman Coulter, Fullerton, Calif.) for 15 minutes at approximately 1,500×g at 4° C. A 100-μL aliquot of each supernatant was transferred via a 550 μL Personal Pipettor (Apricot Designs, Monrovia, Calif.) to 96-well plates and diluted 1:1 with HPLC grade water. The resulting plates were sealed with plate mats and the amount of Compound 1 n plasma was analyzed by LC-MS/MS.
The LC-MS/MS system was comprised of an HTC-PAL autosampler (Leap Technologies, Inc., Carrboro, N.C.), an HP1100 HPLC (Agilent Technologies Inc., Santa Clara, Calif.), and an API4000 triple quadrupole mass spectrometer (Applied Biosystems, Foster City, Calif.). Chromatographic retention of the analyte and internal standard was achieved using a Phenomenex® Synergi 4μ Hydro-RP 80A column (2.1×30 mm, 4 μm particle size; Phenomenex, Torrance, Calif.) in conjunction with gradient conditions using mobile phases A (10 mM ammonium acetate in aqueous 0.1% formic acid and 1% isopropyl alcohol) and B (10 mM ammonium acetate in 89.9% acetonitrile, 10% methanol, 0.1% formic acid). The total run time, including re-equilibration time, for a single injection was 3.5 minutes and the flow rate was 0.8 mL/minute. Solvent B was increased from 5 to 95% in 1.0 minute, held at 95% for 1.0 minute, and then decreased to 5% in 0.1 minute. […]

clearance [mL/min/kg]	in vivo/in vitro correction factor	Compound
7.6	3.16	COCCN1C[C@@H](NC(=O)Nc2c(C)c(-c3cnc(C)nc3)nn2-c2ccccc2)[C@H](c2cccc(F)c2)C1 [Compound 1, 1-((3S,4R)-4-(3-fluorophenyl)-1-(2-methoxyethyl)pyrrolidin-3-yl)-3-(4-methyl-3-(2-methylpyrimidin-5-yl)-1-phenyl-1H-pyrazol-5-yl)urea]
25	1.04	COCCN1C[C@@H](NC(=O)Nc2c(C)c(-c3cnc(C)nc3)nn2-c2ccccc2)[C@H](c2ccc(F)c(F)c2)C1 [Compound 2, 1-((3S,4R)-4-(3,4-difluorophenyl)-1-(2-methoxyethyl)pyrrolidin-3-yl)-3-(4-methyl-3-(2-methylpyrimidin-5-yl)-1-phenyl-1H-pyrazol-5-yl)urea]
18	1.28	COCCN1C[C@@H](NC(=O)Nc2c(C)c(-c3cnn(C)c3)nn2-c2ccccc2)[C@H](c2ccc(F)cc2)C1 [Compound 3, 1-(1′,4-dimethyl-1-phenyl-1H,1′H-[3,4′-bipyrazol]-5-yl)-3-((3S,4R)-4-(4-fluorophenyl)-1-(2-methoxyethyl)pyrrolidin-3-yl)urea]
